Measurements taken from PMC6061685 (Toxicological Sciences, 2018).
“Also recorded” adds a separate entry of the source. Where two headings read alike, the source gives them in different places.

Tests used:
AR [1] = details: exposure 0–100 µM; ref Kizu et al. (2003); cited from earlier work
AR [2] = details: exposure 0–10 µM; ref Vinggaard et al. (2000); cited from earlier work
ERα [3] = details: exposure 0–10 µM; ref Charles et al. (2000); cited from earlier work
[4] = target: T1, aryl hydrocarbon receptor (AhR) (Rattus norvegicus, UniProt P41738); assay: H4IIE AhR CALUX agonist assay; assay type: cell-based
T1 sequence (P41738 10-853): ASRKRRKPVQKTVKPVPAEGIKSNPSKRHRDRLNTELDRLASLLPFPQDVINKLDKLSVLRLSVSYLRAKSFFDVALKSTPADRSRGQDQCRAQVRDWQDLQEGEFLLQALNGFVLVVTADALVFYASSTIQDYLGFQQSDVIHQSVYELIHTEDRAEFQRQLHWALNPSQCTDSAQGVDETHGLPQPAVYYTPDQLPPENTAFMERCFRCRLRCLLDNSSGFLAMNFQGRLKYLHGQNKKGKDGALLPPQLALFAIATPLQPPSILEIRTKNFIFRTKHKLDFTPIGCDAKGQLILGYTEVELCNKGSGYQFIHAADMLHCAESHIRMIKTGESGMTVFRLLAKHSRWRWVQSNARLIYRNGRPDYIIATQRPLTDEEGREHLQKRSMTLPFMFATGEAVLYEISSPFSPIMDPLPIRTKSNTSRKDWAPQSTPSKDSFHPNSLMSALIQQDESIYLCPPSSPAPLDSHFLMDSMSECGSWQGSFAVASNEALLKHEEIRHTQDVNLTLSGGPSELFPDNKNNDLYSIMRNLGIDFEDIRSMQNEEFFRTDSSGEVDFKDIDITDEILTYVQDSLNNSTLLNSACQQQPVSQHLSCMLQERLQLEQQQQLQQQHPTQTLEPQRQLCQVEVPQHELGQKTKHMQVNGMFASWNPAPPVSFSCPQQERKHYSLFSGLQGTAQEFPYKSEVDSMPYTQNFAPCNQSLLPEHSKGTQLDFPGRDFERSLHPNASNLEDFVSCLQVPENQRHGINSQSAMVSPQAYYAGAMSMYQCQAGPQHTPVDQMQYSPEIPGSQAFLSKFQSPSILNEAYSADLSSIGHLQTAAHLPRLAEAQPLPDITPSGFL

ERα [5] = details: 10 mg/kg bw/day; ref Kummer et al. (2008); cited from earlier work
[6] = target: T2, estrogen receptor alpha (ERα) (Homo sapiens, UniProt P03372); assay: U2OS ERα CALUX antagonist assay; assay type: cell-based; details: 24 h exposure; with EC50 concentration of E2 (2.7 × 10^−6 µg/ml)
T2 sequence (P03372 1-595): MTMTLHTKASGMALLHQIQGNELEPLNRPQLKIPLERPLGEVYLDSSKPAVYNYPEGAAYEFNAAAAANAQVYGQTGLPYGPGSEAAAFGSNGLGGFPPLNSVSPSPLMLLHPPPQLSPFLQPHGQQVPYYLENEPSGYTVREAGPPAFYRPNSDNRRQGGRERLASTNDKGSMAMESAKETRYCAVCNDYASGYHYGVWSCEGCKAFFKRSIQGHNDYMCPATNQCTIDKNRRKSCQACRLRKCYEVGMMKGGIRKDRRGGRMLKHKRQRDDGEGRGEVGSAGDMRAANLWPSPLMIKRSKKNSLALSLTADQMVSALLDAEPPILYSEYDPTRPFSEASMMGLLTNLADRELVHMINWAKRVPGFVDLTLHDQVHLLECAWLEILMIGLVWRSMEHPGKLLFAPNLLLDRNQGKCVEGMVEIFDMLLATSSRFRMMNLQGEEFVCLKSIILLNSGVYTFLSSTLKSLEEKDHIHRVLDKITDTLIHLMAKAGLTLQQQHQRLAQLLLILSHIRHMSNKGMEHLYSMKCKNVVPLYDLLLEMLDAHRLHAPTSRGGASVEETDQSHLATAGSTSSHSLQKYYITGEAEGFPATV

c1cc2ccc3cccc4ccc(c1)c2c34 [Pyrene]
Effects on AR (AR [1]): Anthracene and Pyrene show no AR-mediated activity. | Effects on AR (AR [2]): AR antagonist; also recorded: Phenanthrene, Anthracene, Pyrene: antagonize the AR activity just at the highest tested concentration

Cc1c2ccccc2c(C)c2c1ccc1ccccc12 [7, 12-dimethylbenz[a]anthracene]
Effects on AR (AR [2]): AR antagonist

Oc1ccc2ccc3c4ccccc4cc4ccc1c2c43 [3OH-BaP]
Effects on ERα (ERα [3]): Hydroxy metabolites of BaP, including 3OH-BaP, 9OH-BaP, and 9, 10OH-BaP, act as ERα agonist.

c1ccc2cc3c(ccc4ccccc43)cc2c1 [Benz[a]anthracene]
Effects on AR (AR [2]): AR antagonist

c1ccc2c(c1)cc1ccc3cccc4ccc2c1c34 [BaP, benzo[a]pyrene, reference compound]
EC50 [4]: 12.3 nM | Effects on AR (AR [1]): AR antagonist (except for anthracene and pyrene) | Effects on AR (AR [2]): AR antagonist

c1ccc2cc3c(cc2c1)-c1cccc2cccc-3c12 [Benzo[k]fluoranthene]
Effects on ERα (ERα [5]): Benzo[k]fluoranthene shows no ERα-mediated activity. | Effects on AR (AR [1]): AR antagonist (except for anthracene and pyrene)

c1ccc2c(c1)-c1cccc3cccc-2c13 [Fluoranthene]
Effects on ERα (ERα [5]): ERα agonist (except for Benzo[k]fluoranthene) | Effects on AR (AR [2]): AR antagonist

Oc1ccc2cc3ccc4cccc5ccc(c2c1)c3c45 [9OH-BaP]
Effects on ERα (ERα [3]): Hydroxy metabolites of BaP, including 3OH-BaP, 9OH-BaP, and 9, 10OH-BaP, act as ERα agonist.

c1ccc2c(c1)ccc1ccccc12 [Phenanthrene]
Effects on AR (AR [2]): AR antagonist; also recorded: Phenanthrene, Anthracene, Pyrene: antagonize the AR activity just at the highest tested concentration

c1ccc2cc3ccccc3cc2c1 [Anthracene]
Effects on AR (AR [1]): Anthracene and Pyrene show no AR-mediated activity. | Effects on AR (AR [2]): AR antagonist; also recorded: Phenanthrene, Anthracene, Pyrene: antagonize the AR activity just at the highest tested concentration

C[C@]12CC[C@@H]3c4ccc(O)cc4C[C@@H](CCCCCCCCC[S+]([O-])CCCC(F)(F)C(F)(F)F)[C@H]3[C@@H]1CC[C@@H]2O (some centres unmarked) [Fulvestrant, fulvestrant]
ERα Antagonist Assay IC25 [6]: 0.011 ng/mL
